Laboratory results from patent US20060293307A1, “Oxazolidinone derivatives as antimicrobials” (priority 2002, published 2006).
Values after ≈ are worked out from the molar mass of the structure shown. Where two headings read alike, the source gives them in different places.

Key:
Test in all cases: MIC, agar incorporation method
S. epidermidis 358 = format: cell-based, Staphylococcus epidermidis; details: Staphylococcus epidermidis
E. faecalis SP 346 (VRE) = format: cell-based; details: Enterococcus faecalis
S. aureus SG 511 = format: cell-based, Staphylococcus aureus; details: Staphylococcus aureus, SG511
S. haemo ATCC 29970 = format: cell-based
S. pneumoniae CS 1687 = format: cell-based, Streptococcus pneumoniae; details: Streptococcus pneumoniae, CS1687
S. pneumoniae AB 25 = format: cell-based, Streptococcus pneumoniae; details: Streptococcus pneumoniae, AB25
S. pyogenes 19615 = format: cell-based, Streptococcus pyogenes; details: Streptococcus pyogenes
S. pneumoniae AB 34 = format: cell-based, Streptococcus pneumoniae; details: Streptococcus pneumoniae, AB34
S. pneumoniae CS1221 = format: cell-based, Streptococcus pneumoniae; details: Streptococcus pneumoniae
P. aeruginosa ATCC 27853 = format: cell-based; details: Pseudomonas aeruginosa, ATCC27853
E. faecalis 21777 = format: cell-based; details: Enterococcus faecalis
(MRSA) 562 = format: cell-based, Staphylococcus aureus; details: Staphylococcus aureus
E. faecalis 29212 = format: cell-based; details: Enterococcus faecalis
S. pneumoniae 1256 = format: cell-based, Streptococcus pneumoniae; details: Streptococcus pneumoniae
S. aureus (MRSA) ST450 = format: cell-based, Staphylococcus aureus; details: Staphylococcus aureus
[1] = tested on: Serratia marcescens 12999; format: cell-based
S. pneumoniae AB-2 = format: cell-based, Streptococcus pneumoniae; details: Streptococcus pneumoniae, AB2
S. aureus ATCC29213 = format: cell-based, Staphylococcus aureus; details: Staphylococcus aureus
S. pneumoniae 1275 = format: cell-based, Streptococcus pneumoniae; details: Streptococcus pneumoniae
S. pneumoniae ATCC 49619 = format: cell-based, Streptococcus pneumoniae; details: Streptococcus pneumoniae, ATCC49619
S. pneumoniae AB 30 = format: cell-based, Streptococcus pneumoniae; details: Streptococcus pneumoniae, AB30
S. pneumoniae AB-3 = format: cell-based, Streptococcus pneumoniae; details: Streptococcus pneumoniae, AB3
E. faecium 398(VRE) = format: cell-based, Enterococcus faecium; details: Enterococcus faecium
S. pneumoniae AB 29 = format: cell-based, Streptococcus pneumoniae; details: Streptococcus pneumoniae, AB29
S. pyogenes 25147 = format: cell-based, Streptococcus pyogenes; details: Streptococcus pyogenes
S. aureus (Smith 49951) = format: cell-based, Staphylococcus aureus; details: Staphylococcus aureus
S. pneumoniae AB 17 = format: cell-based, Streptococcus pneumoniae; details: Streptococcus pneumoniae, AB17
Salmonella 205 = format: cell-based; details: S. No. 26, Salmonella 205; read-out: MIC
Procedure, shortened: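 Doubling dilutions of compound in DMSO were incorporated into Mueller-Hinton agar; 10^4 CFU/spot inoculated from 0.5 McFarland suspensions and incubated 18 h (24 h for MRSN studies). MIC = lowest concentration without visible growth; valid only when ATCC reference strains gave in-range MICs.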

[2] = tested on: S. epidermidis (MRSE)32965; format: cell-based, Staphylococcus epidermidis; details: Staphylococcus epidermidis
S. pneumoniae AB 22 = format: cell-based, Streptococcus pneumoniae; details: Streptococcus pneumoniae, AB22
S pneumoniae 1294. = format: cell-based, Streptococcus pneumoniae; details: Streptococcus pneumoniae

CC(=O)NC[C@H]1CN(c2ccc(N3CCN(c4ccc(C=O)s4)CC3)c(F)c2)C(=O)O1 [Compound No. 2, (S)—N-[[3-[3-Fluoro-4-[4-(5-formyl-2-thienyl)-1-piperazinyl]phenyl]-2-oxo-5-oxazolidinyl]methyl]acetamide]
MIC (S. epidermidis 358; S. No. 14, S. epidermidis 358, read-out: MIC): 0.5 µg/mL (≈ 1.12 µM) | MIC (E. faecalis SP 346 (VRE); S. No. 20, E. faecalis SP 346 (VRE), read-out: MIC): 0.5 µg/mL (≈ 1.12 µM) | MIC (S. aureus SG 511; S. No. 3, S. aureus SG 511, read-out: MIC): 0.5 µg/mL (≈ 1.12 µM) | MIC (S. haemo ATCC 29970; S. No. 15, S. haemo ATCC 29970, read-out: MIC): 0.5 µg/mL (≈ 1.12 µM) | MIC (S. pneumoniae CS 1687; S. No. 44, S. pneumoniae CS 1687, read-out: MIC): 0.5 µg/mL (≈ 1.12 µM) | MIC (S. pneumoniae AB 25; S. No. 45, S. pneumoniae AB 25, read-out: MIC): < 0.25 µg/mL | MIC (S. pyogenes 19615; S. No. 51, S. pyogenes 19615, read-out: MIC): 0.5 µg/mL (≈ 1.12 µM) | MIC (S. pneumoniae AB 34; S. No. 49, S. pneumoniae AB 34, read-out: MIC): 0.5 µg/mL (≈ 1.12 µM) | MIC (S. pneumoniae CS1221; S. No. 34, S. pneumoniae CS1221, read-out: MIC): 0.5 µg/mL (≈ 1.12 µM) | MIC (P. aeruginosa ATCC 27853; S. No. 28, P. aeruginosa ATCC 27853, read-out: MIC): > 16 µg/mL | MIC (E. faecalis 21777; S. No. 18, E. faecalis 21777, read-out: MIC): 0.5 µg/mL (≈ 1.12 µM) | MIC ((MRSA) 562; S. No. 8, (MRSA) 562, read-out: MIC): 0.5 µg/mL (≈ 1.12 µM) | MIC (E. faecalis 29212; S. No. 17, E. faecalis 29212, read-out: MIC): < 0.25 µg/mL | MIC (S. pneumoniae 1256; S. No. 56, S. pneumoniae 1256, read-out: MIC): < 0.25 µg/mL | MIC (S. aureus (MRSA) ST450; S. No. 6, S. aureus (MRSA) ST450, read-out: MIC): 1 µg/mL (≈ 2.24 µM) | MIC ([1]; S. No. 29, Serratia marcescens 12999, read-out: MIC): > 16 µg/mL | MIC (S. pneumoniae AB-2; S. No. 31, S. pneumoniae AB-2, read-out: MIC): < 0.25 µg/mL | MIC (S. aureus ATCC29213; S. No. 2, S. aureus ATCC29213, read-out: MIC): 1 µg/mL (≈ 2.24 µM) | MIC (S. pneumoniae 1275; S. No. 57, S. pneumoniae 1275, read-out: MIC): < 0.25 µg/mL | MIC (S. pneumoniae ATCC 49619; S. No. 48, S. pneumoniae ATCC 49619, read-out: MIC): 0.5 µg/mL (≈ 1.12 µM) | MIC (S. pneumoniae AB 30; S. No. 47, S. pneumoniae AB 30, read-out: MIC): 0.5 µg/mL (≈ 1.12 µM) | MIC (S. pneumoniae AB-3; S. No. 32, S. pneumoniae AB-3, read-out: MIC): < 0.25 µg/mL | MIC (E. faecium 398(VRE); S. No. 22, E. faecium 398(VRE), read-out: MIC): 0.5 µg/mL (≈ 1.12 µM) | MIC (S. pneumoniae AB 29; S. No. 46, S. pneumoniae AB 29, read-out: MIC): < 0.25 µg/mL | MIC (S. pyogenes 25147; S. No. 52, S. pyogenes 25147, read-out: MIC): 0.5 µg/mL (≈ 1.12 µM) | MIC (S. aureus (Smith 49951); S. No. 9, S. aureus (Smith 49951), read-out: MIC): 0.5 µg/mL (≈ 1.12 µM) | MIC (S. pneumoniae AB 17; S. No. 40, S. pneumoniae AB 17, read-out: MIC): 0.5 µg/mL (≈ 1.12 µM) | MIC (Salmonella 205): > 16 µg/mL | MIC ([2]; S. No. 13, S. epidermidis (MRSE)32965, read-out: MIC): < 0.25 µg/mL | MIC (S. pneumoniae AB 22; S. No. 42, S. pneumoniae AB 22, read-out: MIC): 0.5 µg/mL (≈ 1.12 µM) | MIC (S pneumoniae 1294.; S. No. 55, S pneumoniae 1294., read-out: MIC): 0.5 µg/mL (≈ 1.12 µM)

CC(=O)NC[C@H]1CN(c2ccc(N3CCOCC3)c(F)c2)C(=O)O1 [Linezolid, reference compound]
MIC (S. epidermidis 358; 358): 1 µg/mL (≈ 2.96 µM) | MIC (E. faecalis SP 346 (VRE); VRE): 2 µg/mL (≈ 5.93 µM) | MIC (S. aureus SG 511): 2 µg/mL (≈ 5.93 µM) | MIC (S. haemo ATCC 29970): < 0.5 µg/mL | MIC (S. pneumoniae CS 1687): 1 µg/mL (≈ 2.96 µM) | MIC (S. pneumoniae AB 25): 1 µg/mL (≈ 2.96 µM) | MIC (S. pyogenes 19615; 19615): 1 µg/mL (≈ 2.96 µM) | MIC (S. pneumoniae AB 34): 2 µg/mL (≈ 5.93 µM) | MIC (S. pneumoniae CS1221; CS1221): 0.25 µg/mL (≈ 0.741 µM) | MIC (P. aeruginosa ATCC 27853): > 16 µg/mL | MIC (E. faecalis 21777; 21777): 2 µg/mL (≈ 5.93 µM) | MIC ((MRSA) 562; MRSA): 1 µg/mL (≈ 2.96 µM) | MIC (E. faecalis 29212; 29212): 2 µg/mL (≈ 5.93 µM) | MIC (S. pneumoniae 1256; 1256): 1 µg/mL (≈ 2.96 µM) | MIC (S. aureus (MRSA) ST450; MRSA): 1 µg/mL (≈ 2.96 µM) | MIC ([1]; Serratia marcescens, 12999): > 16 µg/mL | MIC (S. pneumoniae AB-2): 0.25 µg/mL (≈ 0.741 µM) | MIC (S. aureus ATCC29213; ATCC29213): 2 µg/mL (≈ 5.93 µM) | MIC (S. pneumoniae 1275; 1275): 1 µg/mL (≈ 2.96 µM) | MIC (S. pneumoniae ATCC 49619): 1 µg/mL (≈ 2.96 µM) | MIC (S. pneumoniae AB 30): 1 µg/mL (≈ 2.96 µM) | MIC (S. pneumoniae AB-3): 0.25 µg/mL (≈ 0.741 µM) | MIC (E. faecium 398(VRE); VRE): 1 µg/mL (≈ 2.96 µM) | MIC (S. pneumoniae AB 29): 1 µg/mL (≈ 2.96 µM) | MIC (S. pyogenes 25147; 25147): 1 µg/mL (≈ 2.96 µM) | MIC (S. aureus (Smith 49951)): 1 µg/mL (≈ 2.96 µM) | MIC (S. pneumoniae AB 17): 1 µg/mL (≈ 2.96 µM) | MIC (Salmonella 205): > 16 µg/mL | MIC ([2]; MRSE): 1 µg/mL (≈ 2.96 µM) | MIC (S. pneumoniae AB 22): 1 µg/mL (≈ 2.96 µM) | MIC (S pneumoniae 1294.; 1294.): 1 µg/mL (≈ 2.96 µM)
